25 molecules from patent US20240398828A1, “HETERO-ATOM CONTAINING COMPOUNDS AND USES THEREOF” (Kumquat Biosciences Inc., priority 2021, published 2024) can be followed below.

One experiment concerns the target T1, PTPN2 (i.e., TC-PTP) (Homo sapiens, UniProt P17706).
T1 sequence (P17706 1-415): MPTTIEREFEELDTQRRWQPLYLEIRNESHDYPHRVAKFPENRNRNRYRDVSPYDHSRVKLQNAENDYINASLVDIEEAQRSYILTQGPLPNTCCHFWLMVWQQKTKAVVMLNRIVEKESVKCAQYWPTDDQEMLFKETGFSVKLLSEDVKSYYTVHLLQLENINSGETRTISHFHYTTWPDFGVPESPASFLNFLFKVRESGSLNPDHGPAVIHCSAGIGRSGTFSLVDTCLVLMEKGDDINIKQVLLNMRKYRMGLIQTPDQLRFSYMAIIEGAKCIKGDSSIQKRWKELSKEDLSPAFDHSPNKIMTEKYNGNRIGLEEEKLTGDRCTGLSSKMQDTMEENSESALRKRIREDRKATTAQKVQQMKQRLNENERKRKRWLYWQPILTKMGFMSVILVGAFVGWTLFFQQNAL
The experiment can be described thus: Phosphatase activity assay (DiFMUP substrate), PTPN2. It counts as biochemical. Particulars: compounds binned ≤1 uM or >1 uM. Put shortly:
(§1)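 Continuous fluorogenic readout of DiFMUP dephosphorylation at room temperature, substrate set at Km for each phosphatase (about 45 μM in the PTPN2 assay). The buffer contains 1 mM DTT and 0.001% Tween-20, pH 7.5.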

For the next experiment, the target named is T2, PTPN1 (i.e., PTP1B) (Homo sapiens, UniProt P18031).
T2 sequence (P18031 1-435): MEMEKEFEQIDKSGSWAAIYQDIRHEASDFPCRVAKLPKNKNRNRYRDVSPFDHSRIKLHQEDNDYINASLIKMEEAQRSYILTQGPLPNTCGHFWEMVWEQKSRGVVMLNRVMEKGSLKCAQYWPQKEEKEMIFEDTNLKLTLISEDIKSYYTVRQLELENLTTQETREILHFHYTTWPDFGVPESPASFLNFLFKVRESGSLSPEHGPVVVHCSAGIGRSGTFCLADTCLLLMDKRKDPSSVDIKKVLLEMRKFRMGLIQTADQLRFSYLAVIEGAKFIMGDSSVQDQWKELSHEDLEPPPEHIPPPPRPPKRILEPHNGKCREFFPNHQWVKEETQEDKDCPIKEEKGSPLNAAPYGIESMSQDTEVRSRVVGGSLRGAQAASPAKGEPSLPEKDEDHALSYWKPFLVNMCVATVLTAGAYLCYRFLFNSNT
In words: Phosphatase activity assay (DiFMUP substrate), PTP1B. Conditions: compounds binned ≤1 uM or >1 uM. The format is biochemical. Put shortly:
as §1

Some results are limits rather than exact numbers.

In the case of `CC(C)(C)n1cc(-c2ccc(O)c(N3CC(=O)NS3(=O)=O)c2F)cn1` [Compound 293, 5-(3-(1-(tert-butyl)-1H-pyrazol-4-yl)-2-fluoro-6-hydroxyphenyl)-1,2,5-thiadiazolidin-3-one 1,1-dioxide], the IC50 (usually the concentration that inhibits the measured activity by half) was no more than 1000 nM on PTPN2 (i.e., TC-PTP) and no more than 1000 nM on PTPN1 (i.e., PTP1B).
For the molecule `C[C@@H]1C=C(c2ccc(O)c(N3CC(=O)NS3(=O)=O)c2F)CN1` [Compound 483, (R)-5-(2-fluoro-6-hydroxy-3-(5-methyl-2,5-dihydro-1H-pyrrol-3-yl)phenyl)-1,2,5-thiadiazolidin-3-one 1,1-dioxide], the IC50 at PTPN2 (i.e., TC-PTP) was no more than 1000 nM; on PTPN1 (i.e., PTP1B), no more than 1000 nM.
For `NC1CCN(c2cc(-c3ccc(O)c(N4CC(=O)NS4(=O)=O)c3F)[nH]n2)C1` (centres unmarked) [Compound 322, 5-(3-(3-(3-aminopyrrolidin-1-yl)-1H-pyrazol-5-yl)-2-fluoro-6-hydroxyphenyl)-1,2,5-thiadiazolidin-3-one 1,1-dioxide], the IC50 on PTPN2 (i.e., TC-PTP) was no more than 1000 nM; at PTPN1 (i.e., PTP1B), no more than 1000 nM.
`CS(=O)(=O)n1nc(C2CC2)cc1-c1ccc(O)c(N2CC(=O)NS2(=O)=O)c1F` [Compound 495, 5-(3-(3-cyclopropyl-1-(methylsulfonyl)-1H-pyrazol-5-yl)-2-fluoro-6-hydroxyphenyl)-1,2,5-thiadiazolidin-3-one 1,1-dioxide]: the IC50 on PTPN2 (i.e., TC-PTP) was no more than 1000 nM; at PTPN1 (i.e., PTP1B), no more than 1000 nM.
For `Cc1ccccc1-n1cnc(-c2ccc(O)c(N3CC(=O)NS3(=O)=O)c2F)c1` [Compound 418, 5-(2-fluoro-6-hydroxy-3-(1-(o-tolyl)-1H-imidazol-4-yl)phenyl)-1,2,5-thiadiazolidin-3-one 1,1-dioxide], the IC50 on PTPN2 (i.e., TC-PTP) is no more than 1000 nM; on PTPN1 (i.e., PTP1B), no more than 1000 nM.
With `O=C1CN(c2c(O)ccc(-c3cnn(Cc4ccc(C(F)(F)F)cc4)c3)c2F)S(=O)(=O)N1` [Compound 217, 5-(2-fluoro-6-hydroxy-3-(1-(4-(trifluoromethyl)benzyl)-1H-pyrazol-4-yl)phenyl)-1,2,5-thiadiazolidin-3-one 1,1-dioxide], the IC50 on PTPN2 (i.e., TC-PTP) was no more than 1000 nM; on PTPN1 (i.e., PTP1B), no more than 1000 nM.
`O=C1C=C(c2c(O)ccc(-c3cc(C4CC4)n[nH]3)c2F)S(=O)(=O)N1` [Compound 400, 5-(3-(3-cyclopropyl-1H-pyrazol-5-yl)-2-fluoro-6-hydroxyphenyl)isothiazol-3(2H)-one 1,1-dioxide]: the IC50 at PTPN2 (i.e., TC-PTP) was no more than 1000 nM; on PTPN1 (i.e., PTP1B) it was no more than 1000 nM.
`CCC(CC)n1cnc(-c2ccc(O)c(N3CC(=O)NS3(=O)=O)c2F)c1` [Compound 350, 5-(2-fluoro-6-hydroxy-3-(1-(pentan-3-yl)-1H-imidazol-4-yl)phenyl)-1,2,5-thiadiazolidin-3-one 1,1-dioxide]: the IC50 at PTPN2 (i.e., TC-PTP) is no more than 1000 nM; at PTPN1 (i.e., PTP1B), no more than 1000 nM.
`O=C1CN(c2c(O)ccc(-c3cc4ccccc4[nH]3)c2F)S(=O)(=O)N1` [Compound 258, 5-(2-fluoro-6-hydroxy-3-(1H-indol-2-yl)phenyl)-1,2,5-thiadiazolidin-3-one 1,1-dioxide]: the IC50 on PTPN2 (i.e., TC-PTP) was no more than 1000 nM; on PTPN1 (i.e., PTP1B), no more than 1000 nM.
`O=C1CN(c2c(O)ccc(-c3cc(N4CC5(CCC5)C4)n[nH]3)c2F)S(=O)(=O)N1` [Compound 323, 5-(3-(3-(2-azaspiro[3.3]heptan-2-yl)-1H-pyrazol-5-yl)-2-fluoro-6-hydroxyphenyl)-1,2,5-thiadiazolidin-3-one 1,1-dioxide]: the IC50 on PTPN2 (i.e., TC-PTP) is no more than 1000 nM; at PTPN1 (i.e., PTP1B), no more than 1000 nM.
Consider `CC(C)CCN1CCC=C(c2ccc(O)c(N3CC(=O)NS3(=O)=O)c2F)C1` [Compound 210, 5-(2-fluoro-6-hydroxy-3-(1-isopentyl-1,2,5,6-tetrahydropyridin-3-yl)phenyl)-1,2,5-thiadiazolidin-3-one 1,1-dioxide], for which the IC50 at PTPN2 (i.e., TC-PTP) was no more than 1000 nM; at PTPN1 (i.e., PTP1B), no more than 1000 nM.
`O=C1CN(c2c(O)ccc(-c3cn(-c4cc(F)cc(F)c4)cn3)c2F)S(=O)(=O)N1` [Compound 265, 5-(3-(1-(3,5-difluorophenyl)-1H-imidazol-4-yl)-2-fluoro-6-hydroxyphenyl)-1,2,5-thiadiazolidin-3-one 1,1-dioxide]: the IC50 at PTPN2 (i.e., TC-PTP) was no more than 1000 nM; on PTPN1 (i.e., PTP1B), no more than 1000 nM.
As to `O=C1CN(c2c(O)ccc(-c3c[nH]cn3)c2F)S(=O)(=O)N1` [Compound 158, 5-(2-fluoro-6-hydroxy-3-(1H-imidazol-4-yl)phenyl)-1,2,5-thiadiazolidin-3-one 1,1-dioxide], the IC50 at PTPN2 (i.e., TC-PTP) is no more than 1000 nM; on PTPN1 (i.e., PTP1B), no more than 1000 nM.
Turning to `COc1cccc(Cn2cc(-c3ccc(O)c(N4CC(=O)NS4(=O)=O)c3F)cn2)c1` [Compound 127, 5-(2-fluoro-6-hydroxy-3-(1-(3-methoxybenzyl)-1H-pyrazol-4-yl)phenyl)-1,2,5-thiadiazolidin-3-one 1,1-dioxide], the IC50 on PTPN2 (i.e., TC-PTP) was no more than 1000 nM; at PTPN1 (i.e., PTP1B) it was no more than 1000 nM.
Regarding `O=C1CN(c2c(O)ccc(-c3cnn(C4CCC4)c3)c2F)S(=O)(=O)N1` [Compound 194, 5-(3-(1-cyclobutyl-1H-pyrazol-4-yl)-2-fluoro-6-hydroxyphenyl)-1,2,5-thiadiazolidin-3-one 1,1-dioxide], the IC50 on PTPN2 (i.e., TC-PTP) was no more than 1000 nM; on PTPN1 (i.e., PTP1B), no more than 1000 nM.
Consider `O=C1CN(c2c(O)ccc(C3CCC(NS(=O)(=O)C4CC4)CC3)c2F)S(=O)(=O)N1` (centres unmarked) [Compound 450, N-(4-(3-(1,1-dioxido-4-oxo-1,2,5-thiadiazolidin-2-yl)-2-fluoro-4-hydroxyphenyl)cyclohexyl)cyclopropanesulfonamide], for which the IC50 on PTPN2 (i.e., TC-PTP) is no more than 1000 nM; on PTPN1 (i.e., PTP1B) it was no more than 1000 nM.
Take `O=C1CN(c2c(O)ccc(-c3cc(C4=CCOC4)n[nH]3)c2F)S(=O)(=O)N1` [Compound 362, 5-(3-(3-(2,5-dihydrofuran-3-yl)-1H-pyrazol-5-yl)-2-fluoro-6-hydroxyphenyl)-1,2,5-thiadiazolidin-3-one 1,1-dioxide]: the IC50 on PTPN2 (i.e., TC-PTP) was no more than 1000 nM; at PTPN1 (i.e., PTP1B) it was no more than 1000 nM.
On to `N#C[C@H]1CC[C@@H](n2cnc(-c3ccc(O)c(N4CC(=O)NS4(=O)=O)c3F)c2)CC1` [Compound 357, (1s,4s)-4-(4-(3-(1,1-dioxido-4-oxo-1,2,5-thiadiazolidin-2-yl)-2-fluoro-4-hydroxyphenyl)-1H-imidazol-1-yl)cyclohexane-1-carbonitrile], for which the IC50 was no more than 1000 nM on PTPN2 (i.e., TC-PTP) and no more than 1000 nM at PTPN1 (i.e., PTP1B).
Take `Cc1cc(-c2cnn(CCC(C)C)c2)cc(N2CC(=O)NS2(=O)=O)c1O` [Compound 145, 5-(2-hydroxy-5-(1-isopentyl-1H-pyrazol-4-yl)-3-methylphenyl)-1,2,5-thiadiazolidin-3-one 1,1-dioxide]: the IC50 on PTPN2 (i.e., TC-PTP) is greater than 1000 nM; at PTPN1 (i.e., PTP1B) it was greater than 1000 nM.
As to `CN(C)C(=O)n1cc(-c2ccc(O)c(N3CC(=O)NS3(=O)=O)c2F)cn1` [Compound 532, 4-(3-(1,1-dioxido-4-oxo-1,2,5-thiadiazolidin-2-yl)-2-fluoro-4-hydroxyphenyl)-N,N-dimethyl-1H-pyrazole-1-carboxamide], the IC50 on PTPN2 (i.e., TC-PTP) is no more than 1000 nM; on PTPN1 (i.e., PTP1B), no more than 1000 nM.
Turning to `CCn1nc(-c2ccc(O)c(N3CC(=O)NS3(=O)=O)c2F)cc1C1CC1` [Compound 331, 5-(3-(5-cyclopropyl-1-ethyl-1H-pyrazol-3-yl)-2-fluoro-6-hydroxyphenyl)-1,2,5-thiadiazolidin-3-one 1,1-dioxide], the IC50 on PTPN2 (i.e., TC-PTP) is no more than 1000 nM; at PTPN1 (i.e., PTP1B), no more than 1000 nM.
As to `CC1(C)C=C(c2ccc(O)c(N3CC(=O)NS3(=O)=O)c2F)CN1` [Compound 519, 5-(3-(5,5-dimethyl-2,5-dihydro-1H-pyrrol-3-yl)-2-fluoro-6-hydroxyphenyl)-1,2,5-thiadiazolidin-3-one 1,1-dioxide], the IC50 at PTPN2 (i.e., TC-PTP) was greater than 1000 nM; at PTPN1 (i.e., PTP1B), greater than 1000 nM.
In the case of `O=C1CN(c2c(O)ccc(-c3cnn(C(=O)C4CC4)c3)c2F)S(=O)(=O)N1` [Compound 537, 5-(3-(1-(cyclopropanecarbonyl)-1H-pyrazol-4-yl)-2-fluoro-6-hydroxyphenyl)-1,2,5-thiadiazolidin-3-one 1,1-dioxide], the IC50 was no more than 1000 nM at PTPN2 (i.e., TC-PTP) and no more than 1000 nM at PTPN1 (i.e., PTP1B).
With `O=C1CN(c2c(O)ccc(C3CNC(CO)C3)c2F)S(=O)(=O)N1` (centres unmarked) [Compound 327, 5-(2-fluoro-6-hydroxy-3-(5-(hydroxymethyl)pyrrolidin-3-yl)phenyl)-1,2,5-thiadiazolidin-3-one 1,1-dioxide], the IC50 on PTPN2 (i.e., TC-PTP) was no more than 1000 nM; on PTPN1 (i.e., PTP1B), no more than 1000 nM.
Turning to `N#CCCn1cc(-c2ccc(O)c(N3CC(=O)NS3(=O)=O)c2F)cn1` [Compound 204, 3-(4-(3-(1,1-dioxido-4-oxo-1,2,5-thiadiazolidin-2-yl)-2-fluoro-4-hydroxyphenyl)-1H-pyrazol-1-yl)propanenitrile], the IC50 at PTPN2 (i.e., TC-PTP) was no more than 1000 nM; on PTPN1 (i.e., PTP1B), no more than 1000 nM.
